# Reference: article PMC9492542, “Brain-restricted mTOR inhibition with binary pharmacology” (Nature, 2022)
# Several values for one entry are separate records, joined by “and”; a condition that tells them apart may be missing. Equal values may be shown once. Read-outs that look alike come from different tables or passages of the source.
# Experiments:
# FKBP12 = target: T1, FKBP12 (Homo sapiens, UniProt P62942); test: Competition fluorescence polarization assay with FITC-rapamycin tracer; format: binding; conditions: recombinant FKBP12, Extended Data Fig. 2; read-out: Kd (FKBP12)
# T1 construct: His-tag (HRV 3C cleavable) (cleaved yes); made in house; host or cells: Escherichia coli BL21(DE3)
# Experimental: Compound binding affinity was determined using a competition fluorescence polarization assay. […] The assay buffer was 20 mM HEPES pH 7.5 and 0.01% Triton X-100. […] Data were fitted to a three-parameter sigmoidal curve to derive IC50 values. Ki of the compounds were calculated using a tool provided by S. Wang’s laboratory (http://www.umich.edu/~shaomengwanglab/software/calc_ki/index.html). Data were plotted in GraphPad Prism 9.0.
# LRRK2 [1] = target: T2, LRRK2 (Homo sapiens, UniProt Q5S007); test: In vitro LRRK2 kinase inhibition assay (SelectScreen Adapta), with or without 10 µM FKBP12; format: biochemical
# T2 construct: purchased SelectScreen Services (Thermo Fisher Scientific)
# Experimental: In vitro kinase inhibition assays were performed by SelectScreen Services (Thermo Fisher Scientific) using either Z’-LYTE (mTOR, Src, Csk, EGFR, HER2 and HGK), Adapta (LRRK2) or LanthaScreen (DDR2) assay format (standardized protocols can be accessed on the SelectScreen website: https://www.thermofisher.com/us/en/home/products-and-services/services/custom-services/screening-and-profiling-services/selectscreen-profiling-service/selectscreen-kinase-profiling-service.html. When indicated, recombinant FKBP12 protein was added to the assay mixture to a final concentration of 10 µM.
# LRRK2 [2] = target: LRRK2 (Mus musculus, UniProt Q5S006); test: Phospho-LRRK2 (S935) quantification by TR-FRET in RAW264.7 cells; conditions: for P-LRRK2(S935) in RAW264.7 cells: replicate raw data
# Experimental: Phospho-LRRK2 (S935) was quantified in drug-treated cells using a Phospho-LRRK2 (Ser935) cellular kit (Cisbio) following the manufacturer’s instructions. […] Cells were treated with compounds at the indicated concentrations for 2 h. Medium was removed by aspiration and the cells were rinsed with ice-cold PBS (1 ml). Cells were lysed with 100 µl Cisbio 1X lysis buffer at 23 °C directly in plate for 30 min. […] Clarified lysate (16 µl) was dispensed into one well of a low-volume, round-bottom 384-well plate, and 4 µl LRRK2–phospho-LRRK2 (S935) antibody master mix (Cisbio) was added to each well. The plate was incubated at 23 °C for 4 h.
# The TR-FRET signal was calculated as the ratio fluorescence intensity [read B]/[read A].
# [3] = read-out: residual kinase activity (LRRK2), 0.495 nM drug, + 10 µM FKBP12
# [4] = read-out: residual kinase activity (LRRK2), 0.495 nM drug, no FKBP12
# [5] = read-out: residual kinase activity (LRRK2), 1.52 nM drug, + 10 µM FKBP12
# [6] = read-out: residual kinase activity (LRRK2), 1.52 nM drug, no FKBP12
# [7] = read-out: residual kinase activity (LRRK2), 4.57 nM drug, + 10 µM FKBP12
# [8] = read-out: residual kinase activity (LRRK2), 4.57 nM drug, no FKBP12
# [9] = read-out: residual kinase activity (LRRK2), 13.7 nM drug, + 10 µM FKBP12
# [10] = read-out: residual kinase activity (LRRK2), 13.7 nM drug, no FKBP12
# [11] = read-out: residual kinase activity (LRRK2), 41.2 nM drug, + 10 µM FKBP12
# [12] = read-out: residual kinase activity (LRRK2), 41.2 nM drug, no FKBP12
# [13] = read-out: residual kinase activity (LRRK2), 123 nM drug, + 10 µM FKBP12
# [14] = read-out: residual kinase activity (LRRK2), 123 nM drug, no FKBP12
# [15] = read-out: residual kinase activity (LRRK2), 370 nM drug, + 10 µM FKBP12
# [16] = read-out: residual kinase activity (LRRK2), 370 nM drug, no FKBP12
# [17] = read-out: residual kinase activity (LRRK2), 1110 nM drug, + 10 µM FKBP12
# [18] = read-out: residual kinase activity (LRRK2), 1110 nM drug, no FKBP12
# [19] = read-out: residual kinase activity (LRRK2), 3330 nM drug, + 10 µM FKBP12
# [20] = read-out: residual kinase activity (LRRK2), 3330 nM drug, no FKBP12
# [21] = read-out: residual kinase activity (LRRK2), 10000 nM drug, + 10 µM FKBP12
# [22] = read-out: residual kinase activity (LRRK2), 10000 nM drug, no FKBP12
# [23] = 100 nM compound, +1 µM RapaBlock
# Chain of LRRK2 (Mus musculus, UniProt Q5S006) (Q5S006 whole entry): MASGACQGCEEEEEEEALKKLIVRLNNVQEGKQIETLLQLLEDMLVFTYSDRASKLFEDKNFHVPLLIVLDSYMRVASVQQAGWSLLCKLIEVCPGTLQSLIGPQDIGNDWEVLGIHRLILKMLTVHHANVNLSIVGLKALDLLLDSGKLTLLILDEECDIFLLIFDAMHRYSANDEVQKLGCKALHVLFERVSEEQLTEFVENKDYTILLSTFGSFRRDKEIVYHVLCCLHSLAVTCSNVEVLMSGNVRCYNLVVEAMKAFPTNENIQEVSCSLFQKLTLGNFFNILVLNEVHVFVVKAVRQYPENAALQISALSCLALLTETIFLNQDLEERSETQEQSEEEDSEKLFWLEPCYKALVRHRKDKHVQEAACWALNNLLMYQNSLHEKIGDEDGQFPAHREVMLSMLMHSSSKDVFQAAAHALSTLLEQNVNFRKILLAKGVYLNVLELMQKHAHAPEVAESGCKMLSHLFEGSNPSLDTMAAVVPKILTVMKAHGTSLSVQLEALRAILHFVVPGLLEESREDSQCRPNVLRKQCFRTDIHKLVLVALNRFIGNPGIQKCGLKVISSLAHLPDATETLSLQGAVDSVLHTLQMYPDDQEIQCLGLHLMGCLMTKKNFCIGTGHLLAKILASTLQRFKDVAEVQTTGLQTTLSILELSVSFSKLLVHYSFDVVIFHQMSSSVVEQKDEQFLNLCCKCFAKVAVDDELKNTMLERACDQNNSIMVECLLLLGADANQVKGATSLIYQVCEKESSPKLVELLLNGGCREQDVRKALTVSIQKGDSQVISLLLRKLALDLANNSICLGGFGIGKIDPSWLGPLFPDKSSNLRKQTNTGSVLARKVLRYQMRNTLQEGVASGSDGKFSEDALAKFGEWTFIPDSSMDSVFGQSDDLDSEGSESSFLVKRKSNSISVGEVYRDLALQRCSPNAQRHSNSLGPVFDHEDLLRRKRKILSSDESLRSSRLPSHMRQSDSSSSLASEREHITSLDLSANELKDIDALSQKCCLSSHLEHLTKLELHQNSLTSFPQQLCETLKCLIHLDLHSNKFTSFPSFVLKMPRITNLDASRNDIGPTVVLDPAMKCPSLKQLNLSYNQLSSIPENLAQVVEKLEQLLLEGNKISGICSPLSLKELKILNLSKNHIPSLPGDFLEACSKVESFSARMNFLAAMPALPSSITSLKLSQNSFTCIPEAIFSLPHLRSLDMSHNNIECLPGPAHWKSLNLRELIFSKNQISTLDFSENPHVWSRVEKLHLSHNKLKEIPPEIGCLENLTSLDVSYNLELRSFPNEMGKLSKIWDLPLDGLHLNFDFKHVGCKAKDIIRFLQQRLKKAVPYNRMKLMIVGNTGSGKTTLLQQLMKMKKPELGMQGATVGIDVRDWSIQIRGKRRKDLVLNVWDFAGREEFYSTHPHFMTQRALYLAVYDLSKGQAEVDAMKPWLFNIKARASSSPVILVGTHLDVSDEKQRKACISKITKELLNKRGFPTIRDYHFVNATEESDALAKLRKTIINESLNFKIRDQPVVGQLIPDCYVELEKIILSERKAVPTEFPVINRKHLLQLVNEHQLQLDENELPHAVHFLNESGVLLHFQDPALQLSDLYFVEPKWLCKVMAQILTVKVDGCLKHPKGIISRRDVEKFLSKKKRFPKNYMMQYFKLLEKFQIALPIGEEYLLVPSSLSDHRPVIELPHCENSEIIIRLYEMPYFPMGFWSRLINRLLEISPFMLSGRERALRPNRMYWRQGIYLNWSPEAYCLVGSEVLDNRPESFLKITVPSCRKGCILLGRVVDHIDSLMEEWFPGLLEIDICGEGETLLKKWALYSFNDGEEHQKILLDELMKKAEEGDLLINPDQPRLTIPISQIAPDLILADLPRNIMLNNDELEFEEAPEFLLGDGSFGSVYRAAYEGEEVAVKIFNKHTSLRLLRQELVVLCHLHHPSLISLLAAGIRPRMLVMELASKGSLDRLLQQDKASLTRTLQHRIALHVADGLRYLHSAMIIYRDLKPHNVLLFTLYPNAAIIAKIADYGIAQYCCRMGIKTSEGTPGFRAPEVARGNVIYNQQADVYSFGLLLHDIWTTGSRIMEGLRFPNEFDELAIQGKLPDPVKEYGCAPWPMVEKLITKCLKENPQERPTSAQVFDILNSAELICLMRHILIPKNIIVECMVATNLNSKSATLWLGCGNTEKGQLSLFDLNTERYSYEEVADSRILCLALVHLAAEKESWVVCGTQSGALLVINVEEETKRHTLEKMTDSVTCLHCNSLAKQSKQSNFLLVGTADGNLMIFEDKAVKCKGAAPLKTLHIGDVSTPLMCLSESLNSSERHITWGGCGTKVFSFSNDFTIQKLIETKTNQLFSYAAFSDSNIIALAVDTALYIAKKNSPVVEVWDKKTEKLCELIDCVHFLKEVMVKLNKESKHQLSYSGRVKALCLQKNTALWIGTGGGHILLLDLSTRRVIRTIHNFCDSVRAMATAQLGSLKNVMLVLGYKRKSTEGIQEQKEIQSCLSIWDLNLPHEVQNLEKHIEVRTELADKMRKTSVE
# T2 sequence (Q5S007 whole entry): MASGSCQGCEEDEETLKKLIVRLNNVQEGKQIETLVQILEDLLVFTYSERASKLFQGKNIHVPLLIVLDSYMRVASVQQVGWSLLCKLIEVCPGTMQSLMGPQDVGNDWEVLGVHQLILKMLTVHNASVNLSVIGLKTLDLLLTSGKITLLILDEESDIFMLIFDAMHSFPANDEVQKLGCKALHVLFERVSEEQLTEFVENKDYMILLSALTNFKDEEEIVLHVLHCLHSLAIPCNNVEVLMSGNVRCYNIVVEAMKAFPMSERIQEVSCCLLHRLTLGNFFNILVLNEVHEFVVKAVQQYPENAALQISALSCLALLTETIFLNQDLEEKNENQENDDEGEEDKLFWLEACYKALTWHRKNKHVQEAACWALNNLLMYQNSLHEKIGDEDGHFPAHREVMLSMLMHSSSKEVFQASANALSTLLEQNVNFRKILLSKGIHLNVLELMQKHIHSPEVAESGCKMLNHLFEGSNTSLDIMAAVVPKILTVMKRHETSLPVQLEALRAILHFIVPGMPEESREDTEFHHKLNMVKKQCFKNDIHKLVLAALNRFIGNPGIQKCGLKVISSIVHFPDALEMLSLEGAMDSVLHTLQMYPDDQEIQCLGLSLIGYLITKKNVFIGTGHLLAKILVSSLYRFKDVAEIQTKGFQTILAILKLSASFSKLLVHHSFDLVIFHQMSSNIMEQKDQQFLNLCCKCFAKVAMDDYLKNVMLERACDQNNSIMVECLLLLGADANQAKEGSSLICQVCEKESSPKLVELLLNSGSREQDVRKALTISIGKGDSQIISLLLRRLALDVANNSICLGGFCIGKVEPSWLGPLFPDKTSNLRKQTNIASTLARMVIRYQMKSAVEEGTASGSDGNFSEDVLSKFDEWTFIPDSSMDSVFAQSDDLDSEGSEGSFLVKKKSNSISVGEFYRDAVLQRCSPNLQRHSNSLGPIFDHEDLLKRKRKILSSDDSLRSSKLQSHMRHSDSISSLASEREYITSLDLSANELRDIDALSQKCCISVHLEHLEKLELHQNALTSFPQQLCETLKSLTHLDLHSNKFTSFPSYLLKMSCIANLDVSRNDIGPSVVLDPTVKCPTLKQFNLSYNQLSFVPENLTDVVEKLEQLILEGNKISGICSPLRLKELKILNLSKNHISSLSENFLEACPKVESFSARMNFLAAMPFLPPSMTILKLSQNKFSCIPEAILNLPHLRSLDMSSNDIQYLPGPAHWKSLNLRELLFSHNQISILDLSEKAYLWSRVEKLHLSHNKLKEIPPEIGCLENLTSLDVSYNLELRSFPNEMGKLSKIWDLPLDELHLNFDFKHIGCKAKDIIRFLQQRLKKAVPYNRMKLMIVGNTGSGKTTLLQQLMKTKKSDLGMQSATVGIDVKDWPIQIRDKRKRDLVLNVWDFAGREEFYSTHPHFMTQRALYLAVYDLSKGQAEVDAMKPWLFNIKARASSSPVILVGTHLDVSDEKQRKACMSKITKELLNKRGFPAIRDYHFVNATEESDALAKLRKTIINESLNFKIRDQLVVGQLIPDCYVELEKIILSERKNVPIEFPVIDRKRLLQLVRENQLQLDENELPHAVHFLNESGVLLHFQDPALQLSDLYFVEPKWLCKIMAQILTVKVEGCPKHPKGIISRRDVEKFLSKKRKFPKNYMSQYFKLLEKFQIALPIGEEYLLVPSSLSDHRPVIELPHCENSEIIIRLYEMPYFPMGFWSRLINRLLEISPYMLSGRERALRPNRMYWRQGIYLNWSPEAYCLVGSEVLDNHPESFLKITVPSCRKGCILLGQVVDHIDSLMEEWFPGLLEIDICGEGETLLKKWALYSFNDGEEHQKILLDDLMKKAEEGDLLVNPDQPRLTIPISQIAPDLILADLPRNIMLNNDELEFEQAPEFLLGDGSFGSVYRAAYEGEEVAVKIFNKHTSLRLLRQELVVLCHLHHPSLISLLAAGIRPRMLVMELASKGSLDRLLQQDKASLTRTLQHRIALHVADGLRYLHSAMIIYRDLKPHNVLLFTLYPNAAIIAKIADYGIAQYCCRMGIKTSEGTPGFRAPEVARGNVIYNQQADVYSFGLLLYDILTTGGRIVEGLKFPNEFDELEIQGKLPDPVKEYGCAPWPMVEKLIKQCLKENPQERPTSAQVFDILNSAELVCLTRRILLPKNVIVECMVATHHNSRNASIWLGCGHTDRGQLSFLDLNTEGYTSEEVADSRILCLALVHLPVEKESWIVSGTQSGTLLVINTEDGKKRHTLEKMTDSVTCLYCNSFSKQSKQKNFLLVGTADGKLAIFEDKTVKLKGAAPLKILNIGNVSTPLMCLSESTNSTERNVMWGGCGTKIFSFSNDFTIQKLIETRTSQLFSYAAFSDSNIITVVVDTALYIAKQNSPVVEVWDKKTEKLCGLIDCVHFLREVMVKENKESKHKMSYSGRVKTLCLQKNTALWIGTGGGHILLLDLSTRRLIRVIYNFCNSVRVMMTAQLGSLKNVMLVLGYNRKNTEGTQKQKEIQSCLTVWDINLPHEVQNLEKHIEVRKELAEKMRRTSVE
# T1 sequence (P62942 whole entry): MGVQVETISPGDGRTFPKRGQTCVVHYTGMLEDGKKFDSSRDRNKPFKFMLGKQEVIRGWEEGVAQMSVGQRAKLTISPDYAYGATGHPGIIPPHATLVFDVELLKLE
smiles,measurement,setting,value
CO[C@H]1C[C@@H](C)C/C(C)=C/[C@@H](CCCc2cc[n+]([O-])cc2)C(=O)C[C@H](O)[C@@H](C)[C@@H](/C(C)=C/[C@@H]2CC[C@@H](O)[C@H](OC)C2)OC(=O)[C@@H]2CCCCN2C(=O)C(=O)[C@]2(O)O[C@H]1[C@@H](OC)C[C@H]2C [Compound 05-092],Kd,FKBP12,2.5 nM
CCNc1nc(Nc2cc(F)c(C(=O)N3CCN(C(=O)CCC[C@@H]4/C=C(\C)C[C@H](C)C[C@H](OC)[C@H]5O[C@@](O)(C(=O)C(=O)N6CCCC[C@H]6C(=O)O[C@H](/C(C)=C/[C@@H]6CC[C@@H](O)[C@H](OC)C6)[C@H](C)[C@@H](O)CC4=O)[C@H](C)C[C@@H]5OC)CC3)cc2OC)ncc1C(F)(F)F [FK-GNE7915],residual kinase activity (LRRK2),"LRRK2 [1]; 0.495 nM drug, + 10 µM FKBP12",87
same,residual kinase activity (LRRK2),"LRRK2 [1]; 0.495 nM drug, no FKBP12",95
same,residual kinase activity (LRRK2),"LRRK2 [1]; 1.52 nM drug, + 10 µM FKBP12",87
same,residual kinase activity (LRRK2),"LRRK2 [1]; 1.52 nM drug, no FKBP12",95
same,residual kinase activity (LRRK2),"LRRK2 [1]; 4.57 nM drug, + 10 µM FKBP12",65
same,residual kinase activity (LRRK2),"LRRK2 [1]; 4.57 nM drug, no FKBP12",107
same,residual kinase activity (LRRK2),"LRRK2 [1]; 13.7 nM drug, no FKBP12",90
same,residual kinase activity (LRRK2),"LRRK2 [1]; 41.2 nM drug, + 10 µM FKBP12",41
same,residual kinase activity (LRRK2),"LRRK2 [1]; 41.2 nM drug, no FKBP12",70
same,residual kinase activity (LRRK2),"LRRK2 [1]; 123 nM drug, + 10 µM FKBP12",31
same,residual kinase activity (LRRK2),"LRRK2 [1]; 123 nM drug, no FKBP12",47
same,residual kinase activity (LRRK2),"LRRK2 [1]; 370 nM drug, no FKBP12",25
same,residual kinase activity (LRRK2),"LRRK2 [1]; 1110 nM drug, + 10 µM FKBP12",7
same,residual kinase activity (LRRK2),"LRRK2 [1]; 1110 nM drug, no FKBP12",9
same,residual kinase activity (LRRK2),"LRRK2 [1]; 3330 nM drug, no FKBP12",4
same,residual kinase activity (LRRK2),"LRRK2 [1]; 10000 nM drug, + 10 µM FKBP12",5
same,residual kinase activity (LRRK2),"LRRK2 [1]; 10000 nM drug, no FKBP12",3
same,remaining activity at 0.000495 µM,LRRK2 [1]; [3],91%
same,remaining activity at 0.000495 µM,LRRK2 [1]; [4],101%
same,remaining activity at 0.00152 µM,LRRK2 [1]; [5],91%
same,remaining activity at 0.00152 µM,LRRK2 [1]; [6],106%
same,remaining activity at 0.00457 µM,LRRK2 [1]; [7],78%
same,remaining activity at 0.00457 µM,LRRK2 [1]; [8],94%
same,remaining activity at 0.0137 µM,LRRK2 [1]; [9],57%
same,remaining activity at 0.0137 µM,LRRK2 [1]; [10],89%
same,remaining activity at 0.0412 µM,LRRK2 [1]; [11],38%
same,remaining activity at 0.0412 µM,LRRK2 [1]; [12],66%
same,remaining activity at 0.123 µM,LRRK2 [1]; [13],24%
same,remaining activity at 0.123 µM,LRRK2 [1]; [14],54%
same,remaining activity at […],LRRK2 [1]; [15],14%
same,remaining activity at […],LRRK2 [1]; [16],29%
same,remaining activity at 1.11 µM,LRRK2 [1]; [17],8%
same,remaining activity at 1.11 µM,LRRK2 [1]; [18],10%
same,remaining activity at 3.33 µM,LRRK2 [1]; [19],5%
same,remaining activity at 3.33 µM,LRRK2 [1]; [20],5%
same,remaining activity at 10 µM,LRRK2 [1]; [21],6%
same,remaining activity at 10 µM,LRRK2 [1]; [22],5%
same,IC50,LRRK2 [1]; with 10 µM FKBP12,21 nM
same,IC50,LRRK2 [1]; without added FKBP12,107 nM
same,IC50,LRRK2 [2],6.7 nM
same,"level of phospho-LRRK2 (S935), % of the basal level",LRRK2 [2]; 100 nM FK-GNE7915,15%
same,effect on LRRK2 activity,LRRK2 [2]; 100 nM FK-GNE7915 + 1 µM RapaBlock,had no effect on LRRK2 activity
same,P-LRRK2(S935) in RAW264.7 cells,LRRK2 [2]; [23],99.2 and 97.5 and 90.7
same,P-LRRK2(S935) in RAW264.7 cells,"LRRK2 [2]; 100 nM compound, No RapaBlock",16.7 and 15.6 and 13.4
same,P-LRRK2(S935) in RAW264.7 cells,"LRRK2 [2]; Conc 0.457247 nM, 0 nM = 100",84.5 and 90.2 and 94.3
same,P-LRRK2(S935) in RAW264.7 cells,"LRRK2 [2]; Conc 1.37174 nM, 0 nM = 100",79.4 and 82.9 and 87.4
same,P-LRRK2(S935) in RAW264.7 cells,"LRRK2 [2]; Conc 4.11523 nM, 0 nM = 100",67.8 and 77.9 and 73.6
same,P-LRRK2(S935) in RAW264.7 cells,"LRRK2 [2]; Conc 12.3457 nM, 0 nM = 100",32.2 and 34.9 (2×)
same,P-LRRK2(S935) in RAW264.7 cells,"LRRK2 [2]; Conc 37.037 nM, 0 nM = 100",13.7 and 14.5 and 16.2
same,P-LRRK2(S935) in RAW264.7 cells,"LRRK2 [2]; Conc 111.111 nM, 0 nM = 100",11.4 (2×) and 13.1
same,P-LRRK2(S935) in RAW264.7 cells,"LRRK2 [2]; Conc 333.333 nM, 0 nM = 100",13.1 and 12.6 and 11.8
same,P-LRRK2(S935) in RAW264.7 cells,"LRRK2 [2]; Conc 1000 nM, 0 nM = 100",14 and 15.7 and 13.3
CCNc1nc(Nc2cc(F)c(C(=O)N3CCOCC3)cc2OC)ncc1C(F)(F)F [GNE7915],residual kinase activity (LRRK2),"LRRK2 [1]; 0.495 nM drug, no FKBP12",96
same,residual kinase activity (LRRK2),"LRRK2 [1]; 1.52 nM drug, + 10 µM FKBP12",66
same,residual kinase activity (LRRK2),"LRRK2 [1]; 1.52 nM drug, no FKBP12",75
same,residual kinase activity (LRRK2),"LRRK2 [1]; 4.57 nM drug, + 10 µM FKBP12",39
same,residual kinase activity (LRRK2),"LRRK2 [1]; 4.57 nM drug, no FKBP12",41
same,residual kinase activity (LRRK2),"LRRK2 [1]; 13.7 nM drug, + 10 µM FKBP12",15
same,residual kinase activity (LRRK2),"LRRK2 [1]; 13.7 nM drug, no FKBP12",16
same,residual kinase activity (LRRK2),"LRRK2 [1]; 41.2 nM drug, + 10 µM FKBP12",9
same,residual kinase activity (LRRK2),"LRRK2 [1]; 41.2 nM drug, no FKBP12",10
same,residual kinase activity (LRRK2),"LRRK2 [1]; 123 nM drug, + 10 µM FKBP12",6
same,residual kinase activity (LRRK2),"LRRK2 [1]; 123 nM drug, no FKBP12",3
same,residual kinase activity (LRRK2),"LRRK2 [1]; 370 nM drug, + 10 µM FKBP12",5
same,residual kinase activity (LRRK2),"LRRK2 [1]; 370 nM drug, no FKBP12",3
same,residual kinase activity (LRRK2),"LRRK2 [1]; 1110 nM drug, no FKBP12",3
same,residual kinase activity (LRRK2),"LRRK2 [1]; 10000 nM drug, + 10 µM FKBP12",3
same,remaining activity at 0.000495 µM,LRRK2 [1]; [3],84%
same,remaining activity at 0.000495 µM,LRRK2 [1]; [4],78%
same,remaining activity at 0.00152 µM,LRRK2 [1]; [5],68%
same,remaining activity at 0.00152 µM,LRRK2 [1]; [6],68%
same,remaining activity at 0.00457 µM,LRRK2 [1]; [7],38%
same,remaining activity at 0.00457 µM,LRRK2 [1]; [8],39%
same,remaining activity at 0.0137 µM,LRRK2 [1]; [9],17%
same,remaining activity at 0.0137 µM,LRRK2 [1]; [10],18%
same,remaining activity at 0.0412 µM,LRRK2 [1]; [11],8%
same,remaining activity at 0.0412 µM,LRRK2 [1]; [12],6%
same,remaining activity at 0.123 µM,LRRK2 [1]; [13],5%
same,remaining activity at 0.123 µM,LRRK2 [1]; [14],4%
same,remaining activity at […],LRRK2 [1]; [15],4%
same,remaining activity at […],LRRK2 [1]; [16],5%
same,remaining activity at 1.11 µM,LRRK2 [1]; [17],5%
same,remaining activity at 1.11 µM,LRRK2 [1]; [18],4%
same,remaining activity at 3.33 µM,LRRK2 [1]; [19],5%
same,remaining activity at 3.33 µM,LRRK2 [1]; [20],3%
same,remaining activity at 10 µM,LRRK2 [1]; [21],5%
same,remaining activity at 10 µM,LRRK2 [1]; [22],3%
same,IC50,LRRK2 [1]; without added FKBP12,3 nM
same,IC50,LRRK2 [2],81 nM
same,P-LRRK2(S935) in RAW264.7 cells,LRRK2 [2]; [23],61.9 and 64.8 and 53.2
same,P-LRRK2(S935) in RAW264.7 cells,"LRRK2 [2]; 100 nM compound, No RapaBlock",56 and 55.7 and 48.1
CCNc1nc(Nc2cc(F)c(C(=O)N3CCOCC3)cc2OC)ncc1C(F)(F)F [GNE-7915],P-LRRK2(S935) in RAW264.7 cells,"LRRK2 [2]; Conc 0.457247 nM, 0 nM = 100",93.9 and 94 and 94.8
same,P-LRRK2(S935) in RAW264.7 cells,"LRRK2 [2]; Conc 1.37174 nM, 0 nM = 100",113.4 and 112.1 and 104.8
same,P-LRRK2(S935) in RAW264.7 cells,"LRRK2 [2]; Conc 4.11523 nM, 0 nM = 100",116.1 and 116.6 and 114.3
same,P-LRRK2(S935) in RAW264.7 cells,"LRRK2 [2]; Conc 12.3457 nM, 0 nM = 100",104.6 and 91.1 and 91.3
same,P-LRRK2(S935) in RAW264.7 cells,"LRRK2 [2]; Conc 37.037 nM, 0 nM = 100",75.2 and 70.5 and 70.4
same,P-LRRK2(S935) in RAW264.7 cells,"LRRK2 [2]; Conc 111.111 nM, 0 nM = 100",43.3 and 40.8 and 41
same,P-LRRK2(S935) in RAW264.7 cells,"LRRK2 [2]; Conc 333.333 nM, 0 nM = 100",26.6 and 22.6 and 23.5
same,P-LRRK2(S935) in RAW264.7 cells,"LRRK2 [2]; Conc 1000 nM, 0 nM = 100",17.7 and 14.2 and 15.7
